From patent US9618511B2, “Methods and compositions for treating alzheimer's disease” (Eleanore Bennett Charitable Trust #2, priority 2008, dated 2017)
“Also recorded” adds a separate entry of the source. One block for each compound: values may come before it.

Tests used:
[1] = system: PDK-dependent activation of Akt1; assay: In vitro PDK-dependent Akt1 phosphorylation and activity assay (immunoprecipitated PDK1 and Akt1, GSK-3 fusion protein substrate); assay type: biochemical, human (SH-SY5Y, HEK293), mouse (C2C12); conditions: for effect on PDK-stimulated Akt activity / Akt phosphorylation: 10 μM; for relative effect of amyloid preparations (monomer, ADDL, fibril) on PDK-dependent Akt activation: comparison of preparations, SH-SY5Y-derived kinases
Procedure: Akt1 was immunoprecipitated (IP) overnight from 100 μg of the human brain sample or from C2C12 myotubes infected with adenovirus encoding Aβ using a 1:100 dilution of goat anti-Akt1 antibody. The following morning, 40 μl of a 50% slurry of protein G-Agarose (PGA) (Roche Applied Science) was added for an additional 1.5 hours. The beads were washed twice with wash buffer [1× phosphate buffered saline (PBS), 0.5% NP-40, 0.1 mM Na3VO4] and twice with kinase buffer [25 mM Tris (pH 7.5), 2 mM DTT, 0.1 mM Na3VO4, 10 mM MgCl2]. ATP (200 μM) and GSK-3 fusion protein (1 μg/50 μl) were added in the presence of kinase buffer, and the final reaction (50 μl) was incubated 30 minutes at 30° C. The reaction was stopped by adding 40 μl of Laemmli buffer. 20 μl of sample was loaded onto a 10% polyacrylamide gel for fractionation and western detection development.
Immunoprecipitates (IPs) of PDK1 and Akt were prepared from 100 μg of either SH-SY5Y, C2C12 myotubes or from insulin-treated cultures. ATP (200 μM), GSK-3 fusion protein (1 μg/50 μl) and kinase buffer were added to the reaction. Various Aβ peptides were finally added at 0.01, 0.1, 1, 5, 10, 20 μM. Akt activity level was otherwise determined as above.

[2] = biological target: T1, SGK (serum/glucocorticoid regulated kinase) activated by PDK (Mus musculus, UniProt Q9Z2A0); assay: PDK-stimulated SGK activity, in vitro kinase assay; assay type: biochemical; conditions: 10 μM
T1 construct: Stimulated PDK was IP from insulin-treated C2C12 myotubes; endogenous in cells; host or cells: PDK from insulin-treated C2C12 myotubes
T1 sequence (Q9Z2A0 1-559): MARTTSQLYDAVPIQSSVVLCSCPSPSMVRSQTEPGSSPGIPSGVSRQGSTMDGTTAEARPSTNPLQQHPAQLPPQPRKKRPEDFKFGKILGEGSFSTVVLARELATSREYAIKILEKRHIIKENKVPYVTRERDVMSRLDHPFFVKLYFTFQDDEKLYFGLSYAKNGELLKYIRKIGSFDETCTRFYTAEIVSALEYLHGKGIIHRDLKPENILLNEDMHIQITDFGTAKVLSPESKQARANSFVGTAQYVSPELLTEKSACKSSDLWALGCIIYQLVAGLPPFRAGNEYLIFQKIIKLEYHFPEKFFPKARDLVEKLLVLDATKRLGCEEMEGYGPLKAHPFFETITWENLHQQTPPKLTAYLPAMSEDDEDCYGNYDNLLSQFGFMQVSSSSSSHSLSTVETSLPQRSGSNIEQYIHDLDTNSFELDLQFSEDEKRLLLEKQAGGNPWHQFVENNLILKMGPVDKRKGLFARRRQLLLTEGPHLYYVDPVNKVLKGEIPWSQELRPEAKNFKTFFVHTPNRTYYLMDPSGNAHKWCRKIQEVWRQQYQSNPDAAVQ
Description: Another kinase, termed SGK (serum/glucocorticoid regulated kinase), is also activated by PDK. Similar to Akt, SGK has a PH domain and phosphorylates GSK-3 α/β (Kobayashi, T., Deak, M., Morrice, N., and Cohen, P., 1999, Characterization of the structure and regulation of two novel isoforms of serum- and glucocorticoid-induced protein kinase, Biochem J 344 Pt 1:189-197, and Tessier, M., and Woodgett, J. R., 2006, Serum and glucocorticoid-regulated protein kinases: variations on a theme, J Cell Biochem 98:1391-1407). If Aβ inhibits PH-mediated activations of Akt independent of PIP3, it is predicted to affect this mechanism too. Indeed, in FIG. 7D, ADDL-containing Aβ preparations inhibited PDK-stimulated SGK activity (lane 7 vs. 6 and 5). […] This enhanced activity was not however, interrupted by Aβ (10 μM, lane 4 vs. 3). Lastly, another kinase that converges to phosphorylate GSK, PKA (Grimes, C. A., and Jope, R. S., 2001, The multifaceted roles of glycogen synthase kinase 3beta in cellular signaling, Prog Neurobiol 65:391-426; Li, M., Wang, X., Meintzer, M. K., Laessig, T., Birnbaum, M. J., and Heidenreich, K. A., 2000, Cyclic AMP promotes neuronal survival by phosphorylation of glycogen synthase kinase 3beta, Mol Cell Biol 20:9356-9363), was tested. […] Thus, the mechanism of Aβ inhibition of Akt activation is specific to PDK-like kinases. […]

C2C12 myotubes = assay: Extracellular peptide or insulin treatment of C2C12 myotubes, western blot of Akt signaling; assay type: cell-based, mouse
Procedure: The prior cell-based and in vitro experiments are relevant to […] Aβ effects. To determine the specificity of Akt inhibition by […] Aβ, C2C12 myotubes were cultured, and treated with extracellular Aβ25-35, Aβ35-25, Aβ1-42 and Aβ42-1 for 24 hours. In the last 30 minutes before harvest, insulin was added (0.1 μg/ml). While p-Akt (Ser473) and p-GSK-3 α/β levels were increased by insulin treatment (FIG. 9C, lane 2 vs. 1), they were not affected by any of the Aβ treatments. […] There were also no significant changes in p-Akt (Ser473) levels (data not shown). […] PDK itself is subject to phosphorylation (e.g., at Ser 241) and several authors feel that it is constitutively phosphorylated and thus ‘primed’ (Casamayor, A., Morrice, N. A., and Alessi, D. R., 1999, Phosphorylation of Ser-241 is essential for the activity of 3-phosphoinositide-dependent protein kinase-1: identification of five sites of phosphorylation in vivo, Biochem J 342 (Pt 2):287-292). The experiments described herein indicate that p-PDK levels are constitutively high in C2C12 cells and not boosted further by insulin action (FIG. 9E, top). p-PDK levels were not modulated by extracellular (FIG. 9E lower panel) or intracellular Aβ expression (not shown).
In FIG. 9C C2C12 myotubes were bath exposed to AP25-35, reverse AP35-25, AP1-42 and reverse Aβ42-1 peptides for 24 hours before treatment with insulin (0.1 μg/ml, 15 min) Whole cell extracts were subjected to Western analysis for p-Akt (Ser473) (Akt activation) and total Akt levels (top) as well as for endogenous levels of pGSK-3a/p, indicative of Akt activity, and total GSK-3β (lower two blots). […] The increase was not affected by pre-treatment with extracellular AR.
In FIG. 9D C2C12 myotube cultures were exposed to increasing doses of A[i1-42 (0, 10 and 25 μM) for 2 hours before treatment with insulin (0, 20, 100 and 500 ng/ml) for 15 min Harvested cell extracts were used for western blot for p-Akt (Thr308).

Compound: CCCCCCCCCCCCCCCC(=O)OC[C@H](COP(=O)(O)OC1[C@H](O)[C@H](OP(=O)(O)O)C(OP(=O)(O)O)[C@H](OP(=O)(O)O)[C@H]1O)OC(=O)CCCCCCCCCCCCCCC (stereo partly shown) [PIP3, phosphatidylinositol-tris-3,4,5-phosphate, dipalmitoyl]
PDK-dependent Akt1 phosphorylation and activity ([1]; 50 nM added, PP2A-treated Akt): extra increase

PDK-stimulated SGK activity [2]: inhibited SGK activation
Compound: ADDL: Aβ-derived diffusible ligands, oligomer-enriched Aβ42 preparation (24 to 48 hr at 4° C.)
effect on PDK-stimulated Akt activity (GSK-3 substrate phosphorylation) ([1]; 5 μM (or doses up to 5 μM)): greatest interference | effect on PDK-stimulated Akt activity / Akt phosphorylation [1]: nearly eliminates | effect on PDK-stimulated Akt activity / Akt phosphorylation ([1]; listed as ADDL preparations): near total inhibition | relative effect of amyloid preparations (monomer, ADDL, fibril) on PDK-dependent Akt activation [1]: more potent inhibitors | relative effect of amyloid preparations (monomer, ADDL, fibril) on PDK-dependent Akt activation ([1]; listed as ADDL-containing Aβ preparations): additively more injurious | relative effect of amyloid preparations (monomer, ADDL, fibril) on PDK-dependent Akt activation ([1]; listed as ADDLs): more toxic; also recorded: significantly prevented; also recorded: significantly greater inhibition

Compound: Aβ25-35: fragment consisting of residues 25-35 of Aβ (GSNKGAIIGLM; Amyloid-beta protein 42; UniProt P05067 696-706, looked up, fragment)
p-Akt (Ser473) and p-GSK-3 α/β levels after insulin (C2C12 myotubes; extracellular peptide 24 hours, then insulin 0.1 μg/ml): not affected

Compound: Fibrillar Aβ: fibrillar Aβ42 made in 10 mM HCl, 37° C., 24 hr
relative effect of amyloid preparations (monomer, ADDL, fibril) on PDK-dependent Akt activation ([1]; listed as fibril-containing preparations): little toxicity; also recorded: least active | relative effect of amyloid preparations (monomer, ADDL, fibril) on PDK-dependent Akt activation ([1]; listed as fibrillated preparations of Aβ): little effect

Compound: Insulin: insulin used to stimulate the Akt pathway
levels of p-Akt (Ser473) and Akt activity (p-GSK-3 α/β) (C2C12 myotubes; 0.1 μg/ml, 15 min): significantly increased

Compound: PTEN: Recombinant Phosphatase and Tensin Homolog, lipid phosphatase (R & D Systems)
PDK stimulation of Akt activity after preincubation of the kinase beads ([1]; preincubation 10.6 μg/ml, 15 min at 37° C., then washing): eliminated any stimulation of Akt activity
